Assay results published in patent US10222368B2 (priority 2012, dated 2019).

Columns and labels:
[1] = biological target: FLNA association with TLR4 (Homo sapiens, UniProt P21333); experiment: Postmortem human brain tissue slices, anti-FLNA immunoprecipitation / Western blot; assay type: cell-based; details: 0.1 and 1 nM C0105, 1 hour; postmortem AD and Aβ42-treated control FCX tissue
Method: (§1) Blots were analyzed by densitometric quantitation (FIG. 3B and FIG. 3D). […] Percent inhibition is depicted in FIG. 3C and FIG. 3E. n=11.
(§2) Postmortem brain tissues FCX from patients with clinically diagnosed sporadic AD and control tissues from normal, age-matched, neurologically normal individuals were obtained from the Harvard Brain Tissue Resource Center (HBTRC, Belmont, Mass.) and UCLA Brain Tissue Resource Center (UBTRC, Los Angeles, Calif.). Both HBTRC and UBTRC are supported in part by the National Institute of Health. The postmortem time intervals for collecting these brains were ≤13 hour (mean postmortem intervals for collection of AD and control brain samples were 6.0±0.9 hour and 5.8±0.8 hour, respectively). Diagnostic neuropathological examination was conducted on fixed sections stained with hematoxylin and eosin stain and with modified Bielschowsky silver staining [Yamamoto et al., Neuropathol Appl Neurobiol 12, 3-9 (1986)] to establish any disease diagnosis according to defined criteria [Hyman et al., J Neuropathol Exp Neurol 56, 1095-1097 (1997)] and brain tissue from age-matched controls was similarly screened.
(§3) Following centrifugation and two additional washes with 1 ml ice-cold K-R, brain slices were suspended in 1 ml K-R.
(§4) Incubation continued for 1 hour in the dark. […]

[2] = biological target: FLNA association with α7nAChR (Homo sapiens, UniProt P21333); experiment: as above; assay type: cell-based; details: 0.1 and 1 nM C0105, 1 hour; postmortem AD and Aβ42-treated control FCX tissue
Method: as §1, §2, §3, §4

TLR4-FLNA complexes = biological target: T1, TLR4-FLNA complexes (Mus musculus, UniProt Q8BTM8); experiment: AD transgenic mouse oral treatment, lymphocyte anti-FLNA immunoprecipitation / Western blot; assay type: in vivo; details: 30 mg/kg C0105 orally for 2 months; AD transgenic mice from age 4 and 8 months
T1 construct: measuring α7nAChR and TLR4 contents in anti-FLNA immunoprecipitate by Western blotting; endogenous in cells; host or cells: trunk-blood lymphocytes of E129 and tau/APP695sw/PS1 transgenic mice
Method: (§5) FIG. 19, in five panels as FIG. 19A and FIG. 19B, FIG. 19C, FIG. 19D and FIG. 19E, illustrate the effects of oral administration of 30 mg/kg of Compound C0105 for a period of two months to E129 mice and AD transgenic (tau/APP695sw(-9E0/PS1) mice beginning at the ages of 4 and 8 months. Mice were sacrificed, and their brains extracted/dissected to confirm pathologies. Trunk blood was collected and lymphocyte lysate preparations were analyzed for levels of α7nAChR and FLNA as well as TLR4 and FLNA by measuring α7nAChR and TLR4 contents in anti-FLNA immunoprecipitates by Western blotting and visualization with FITC. Data are expressed as the ratios of optical intensities of α7nAChR to FLNA (FIGS. 19B and 19C) and TLR4 to FLNA (FIGS. 19D and 19E). n=5. […]
(§6) To assess the C0105's AD treatment efficacy, E129 mice and AD transgenic (tau/APP695sw(-9E)/PS1) mice at age of 4-months (minimal plaque pathologies) and 8-months (established plaque pathologies) were treated orally with 30 mg/kg of C0105 for 2 months. […] The protein bands were detected using a chemiluminescent method, visualized by exposure to x-ray film and quantified by densitometric scan.
(§7) The data were expressed as the ratios of optical intensities of α7nAChR to FLNA and TLR4 to FLNA. […]

α7nAChR-FLNA complexes = biological target: T2, α7nAChR-FLNA complexes (Mus musculus, UniProt Q8BTM8); experiment: as above; assay type: in vivo; details: 30 mg/kg C0105 orally for 2 months; AD transgenic mice from age 4 and 8 months
T2 construct: measuring α7nAChR and TLR4 contents in anti-FLNA immunoprecipitate by Western blotting; endogenous in cells; host or cells: trunk-blood lymphocytes of E129 and tau/APP695sw/PS1 transgenic mice
Method: as §5, §6, §7

α7nAChR/FLNA complexes = biological target: T3, α7nAChR/FLNA complexes (Homo sapiens, UniProt P21333); experiment: Protein A and Protein G capture plate assay in lymphocytes; assay type: cell-based; details: 1 nM
T3 construct: To determine the levels of FLNA-α7nAChR, FLNA-TLR4 and α7nAChR-Aβ42 complexes in the lymphocytes; endogenous in cells; host or cells: lymphocytes from venous blood of AD patients and control subjects (ex vivo)
Method: Each sample was assessed in duplicate.

[3] = biological target: FLNA association with α7nAChR (Mus musculus, UniProt Q8BTM8); experiment: ICV Aβ42 infusion mouse model, synaptosome co-immunoprecipitation; details: 10 mg/kg C0105 i.p. twice daily, 2 weeks; prefrontal cortex and hippocampus

T3 sequence (P21333 2-2647 limits assumed, one chain of several): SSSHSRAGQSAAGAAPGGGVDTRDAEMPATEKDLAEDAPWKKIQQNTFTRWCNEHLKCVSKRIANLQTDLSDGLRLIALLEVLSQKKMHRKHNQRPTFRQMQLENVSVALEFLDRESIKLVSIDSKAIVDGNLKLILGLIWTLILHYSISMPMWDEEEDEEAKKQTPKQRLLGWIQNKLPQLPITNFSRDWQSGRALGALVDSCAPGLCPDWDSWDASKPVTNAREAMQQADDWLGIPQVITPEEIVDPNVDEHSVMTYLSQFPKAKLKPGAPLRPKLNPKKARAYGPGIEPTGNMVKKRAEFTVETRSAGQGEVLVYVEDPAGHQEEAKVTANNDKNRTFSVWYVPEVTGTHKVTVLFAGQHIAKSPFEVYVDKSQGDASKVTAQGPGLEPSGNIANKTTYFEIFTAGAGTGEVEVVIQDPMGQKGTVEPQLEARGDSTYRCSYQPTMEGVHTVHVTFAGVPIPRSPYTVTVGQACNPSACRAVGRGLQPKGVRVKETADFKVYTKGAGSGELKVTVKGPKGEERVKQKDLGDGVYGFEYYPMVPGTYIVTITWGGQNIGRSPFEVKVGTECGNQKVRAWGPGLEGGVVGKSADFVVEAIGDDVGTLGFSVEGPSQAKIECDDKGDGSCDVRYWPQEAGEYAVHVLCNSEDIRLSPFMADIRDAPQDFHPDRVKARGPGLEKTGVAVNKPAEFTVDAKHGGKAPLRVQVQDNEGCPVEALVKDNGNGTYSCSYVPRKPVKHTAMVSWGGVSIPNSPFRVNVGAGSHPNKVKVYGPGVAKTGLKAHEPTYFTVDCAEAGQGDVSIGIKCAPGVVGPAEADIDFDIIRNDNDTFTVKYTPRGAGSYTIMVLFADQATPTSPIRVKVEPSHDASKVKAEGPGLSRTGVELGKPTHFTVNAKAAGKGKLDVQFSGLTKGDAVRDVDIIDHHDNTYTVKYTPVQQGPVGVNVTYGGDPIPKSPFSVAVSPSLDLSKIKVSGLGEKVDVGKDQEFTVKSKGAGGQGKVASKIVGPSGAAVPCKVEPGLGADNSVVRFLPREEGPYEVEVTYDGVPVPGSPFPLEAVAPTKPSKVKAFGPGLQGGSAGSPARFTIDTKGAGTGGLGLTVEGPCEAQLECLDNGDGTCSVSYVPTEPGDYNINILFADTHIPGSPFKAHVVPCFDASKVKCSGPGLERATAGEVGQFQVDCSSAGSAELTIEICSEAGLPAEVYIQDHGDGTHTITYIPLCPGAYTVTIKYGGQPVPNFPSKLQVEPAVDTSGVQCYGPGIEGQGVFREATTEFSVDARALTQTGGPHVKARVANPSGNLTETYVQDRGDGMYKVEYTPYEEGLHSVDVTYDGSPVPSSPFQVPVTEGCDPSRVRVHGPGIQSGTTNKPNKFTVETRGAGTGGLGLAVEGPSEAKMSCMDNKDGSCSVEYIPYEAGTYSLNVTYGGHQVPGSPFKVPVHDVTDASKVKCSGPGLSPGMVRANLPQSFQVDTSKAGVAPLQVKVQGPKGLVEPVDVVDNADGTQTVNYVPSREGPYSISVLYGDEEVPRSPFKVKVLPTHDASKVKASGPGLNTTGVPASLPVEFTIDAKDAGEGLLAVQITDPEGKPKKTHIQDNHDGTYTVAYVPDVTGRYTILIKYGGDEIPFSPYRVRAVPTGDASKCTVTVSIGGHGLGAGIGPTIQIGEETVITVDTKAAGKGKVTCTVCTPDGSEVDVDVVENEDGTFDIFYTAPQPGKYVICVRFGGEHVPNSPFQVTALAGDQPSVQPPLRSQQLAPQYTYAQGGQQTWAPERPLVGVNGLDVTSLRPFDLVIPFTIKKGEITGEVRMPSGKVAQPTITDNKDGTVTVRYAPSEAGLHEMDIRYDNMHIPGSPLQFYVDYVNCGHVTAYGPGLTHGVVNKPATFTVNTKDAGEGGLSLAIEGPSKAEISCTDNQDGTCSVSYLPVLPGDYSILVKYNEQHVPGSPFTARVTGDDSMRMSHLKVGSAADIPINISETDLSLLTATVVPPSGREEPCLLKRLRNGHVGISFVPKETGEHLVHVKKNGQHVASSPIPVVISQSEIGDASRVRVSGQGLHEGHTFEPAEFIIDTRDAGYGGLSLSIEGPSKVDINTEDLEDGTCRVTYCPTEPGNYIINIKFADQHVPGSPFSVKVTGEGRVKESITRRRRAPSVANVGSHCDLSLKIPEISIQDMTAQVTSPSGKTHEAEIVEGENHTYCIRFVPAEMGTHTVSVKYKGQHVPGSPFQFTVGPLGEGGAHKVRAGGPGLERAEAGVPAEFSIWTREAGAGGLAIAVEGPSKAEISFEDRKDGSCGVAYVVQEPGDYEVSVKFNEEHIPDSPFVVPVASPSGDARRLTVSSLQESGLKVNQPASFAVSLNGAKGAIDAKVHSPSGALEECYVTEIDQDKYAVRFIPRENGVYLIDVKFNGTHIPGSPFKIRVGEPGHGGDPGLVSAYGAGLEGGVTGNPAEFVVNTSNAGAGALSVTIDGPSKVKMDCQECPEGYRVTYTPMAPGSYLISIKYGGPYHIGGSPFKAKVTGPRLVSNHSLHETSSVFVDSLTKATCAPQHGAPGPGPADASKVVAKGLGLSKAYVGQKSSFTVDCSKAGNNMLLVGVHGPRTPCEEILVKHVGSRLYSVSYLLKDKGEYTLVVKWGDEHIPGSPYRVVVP
FLNA association with α7nAChR (Homo sapiens, UniProt P21333), sequence (P21333 2-2647 limits assumed): as the sequence (P21333 2-2647 limits assumed, one chain of several) above
FLNA association with TLR4, sequence (P21333 2-2647 limits assumed): as the sequence (P21333 2-2647 limits assumed, one chain of several) above

## CN1CCC2(CC1)NCC(=O)N2Cc1ccccc1 [Compound C0105]
[1]
  Effect on FLNA association with TLR4 (in words): reduced these associations
[2]
  Effect on FLNA association with α7nAChR (in words): reduced these associations
TLR4-FLNA complexes
  Effect on elevated TLR4-FLNA complexes in lymphocytes (in words): robustly normalized
α7nAChR-FLNA complexes
  Effect on elevated α7nAChR-FLNA complexes in lymphocytes (in words): robustly normalized
α7nAChR/FLNA complexes; AD lymphocytes
  Decrease in amount of α7nAChR FLNA complexes: approximately 50%
α7nAChR/FLNA complexes; YCI lymphocytes
  Response of α7nAChR/FLNA complexes (in words): essentially non-responsive
[3]
  Effect on Aβ42-induced FLNA association with α7nAChR (in words): reduced Aβ42-induced increases in FLNA associations
